The subject of data set [1] is HCV replicon RNA (GenBank Accession No. AJ242654). The data set can be described thus: HCV Replicon Assay (replicon RNA reduction and/or Fluc reporter signal). The conditions noted are these: Hepatitis C virus, 72 h, replicon-containing cells cultured with test compound for up to 3 days. Format: cell-based, Hepatitis C virus. The method in brief: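 IC50 values mostly reflect the drop in replicon RNA, though Fluc reporter signal may also be used. Compound incubated with cells carrying the bicistronic replicon for as long as 3 days; interferon served as positive control.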
Background: A replicon is a self-replicating genome or part of one, used to study replication in cells.

What is called IC50 is the concentration that inhibits the measured activity by half. Low readings indicate greater potency in that assay, high ones weaker potency in that assay. In general, melting point refers to the temperature of the solid-liquid transition.

Compound `CC1(NS(=O)(=O)c2ccc(-c3c(C#N)c4cc(C5CC5)cnc4n3C3CCC3)cc2)CC1` [Cpd 127, 4-(3-cyano-1-cyclobutyl-5-cyclopropyl-1H-pyrrolo[2,3-b]pyridin-2-yl)-N-(1-methylcyclopropyl)benzenesulfonamide] gave a melting point of 152 to 161 °C. The IC50 in data set [1] was under 500 nM.
For `CC1(NS(=O)(=O)c2ccc(-c3c(C#N)c4cc(C5CC5)cnc4n3C3CCC3)nc2)CC1` [Cpd 128, 6-(3-cyano-1-cyclobutyl-5-cyclopropyl-1H-pyrrolo[2,3-b]pyridin-2-yl)-N-(1-methylcyclopropyl)pyridine-3-sulfonamide] the same measures were 178 to 185 °C and under 500 nM.
For `CC1(NS(=O)(=O)c2cnc(-c3c(C#N)c4cc(C5CC5)cnc4n3C3CCC3)nc2)CC1` [Cpd 129, 2-(3-cyano-1-cyclobutyl-5-cyclopropyl-1H-pyrrolo[2,3-b]pyridin-2-yl)-N-(1-methylcyclopropyl)pyrimidine-5-sulfonamide] the same measures were 161 to 169 °C and under 500 nM.
For `N#Cc1c(-c2ccc(S(=O)(=O)NC(CF)CF)cc2)n(C2CCC2)c2ncc(C3CC3)cc12` [Cpd 130, 4-(3-cyano-1-cyclobutyl-5-cyclopropyl-1H-pyrrolo[2,3-b]pyridin-2-yl)-N-(1,3-difluoropropan-2-yl)benzenesulfonamide] the same measures were 225 to 230 °C and under 500 nM.
Regarding `N#Cc1c(-c2ncc(S(=O)(=O)NC(CF)CF)cn2)n(C2CCC2)c2ncc(C3CC3)cc12` [Cpd 132, 2-(3-cyano-1-cyclobutyl-5-cyclopropyl-1H-pyrrolo[2,3-b]pyridin-2-yl)-N-(1,3-difluoropropan-2-yl)pyrimidine-5-sulfonamide], the melting point fell in the range of 189 to 197 °C. Also, the IC50 in data set [1] is under 500 nM.
The corresponding values for `N#Cc1c(-c2ccc(S(=O)(=O)NC3CC3)cn2)n(C2CCC2)c2ncc(C3CC3)cc12` [Cpd 133, 6-(3-cyano-1-cyclobutyl-5-cyclopropyl-1H-pyrrolo[2,3-b]pyridin-2-yl)-N-cyclopropylpyridine-3-sulfonamide] are 169 to 174 °C and under 500 nM.
The corresponding values for `N#Cc1c(-c2ccc(S(=O)(=O)NC3CCC3)cn2)n(C2CCC2)c2ncc(C3CC3)cc12` [Cpd 134, 6-(3-cyano-1-cyclobutyl-5-cyclopropyl-1H-pyrrolo[2,3-b]pyridin-2-yl)-N-cyclobutylpyridine-3-sulfonamide] are 189 to 197 °C and under 500 nM.
Consider `CC(C)NS(=O)(=O)c1cnc(-c2c(C#N)c3cc(C4CC4)cnc3n2C2CCC2)nc1` [Cpd 136, 2-(3-cyano-1-cyclobutyl-5-cyclopropyl-1H-pyrrolo[2,3-b]pyridin-2-yl)-N-(propan-2-yl)pyrimidine-5-sulfonamide], for which the melting point was in the range of 187 to 195 °C. This compound also gave an IC50 in data set [1] of under 500 nM.
The corresponding values for `Cc1ccc2c(C#N)c(-c3ncc(S(=O)(=O)N[C@@H](C)C(F)(F)F)cn3)n(C3CCC3)c2n1` [Cpd 137, 2-(3-cyano-1-cyclobutyl-6-methyl-1H-pyrrolo[2,3-b]pyridin-2-yl)-N-[(2S)-1,1,1-trifluoropropan-2-yl]pyrimidine-5-sulfonamide] are 207 to 212 °C and under 500 nM.
The corresponding values for `Cc1ccc2c(C#N)c(-c3ncc(S(=O)(=O)N[C@H](C)C(F)(F)F)cn3)n(C3CCC3)c2n1` [Cpd 138, 2-(3-cyano-1-cyclobutyl-6-methyl-1H-pyrrolo[2,3-b]pyridin-2-yl)-N-[(2R)-1,1,1-trifluoropropan-2-yl]pyrimidine-5-sulfonamide] are 205 to 209 °C and 500 to 2000 nM.
Consider `Cc1ccc2c(C#N)c(-c3ccc(S(=O)(=O)NC4(C(F)(F)F)CC4)cc3)n(C3CCC3)c2n1` [Cpd 140, 4-(3-cyano-1-cyclobutyl-6-methyl-1H-pyrrolo[2,3-b]pyridin-2-yl)-N-[1-(trifluoromethyl)cyclopropyl]benzenesulfonamide], for which the melting point lay within 205 to 212 °C. The half-maximal inhibitory concentration (IC50) in data set [1] lay in the range of 500 to 2000 nM.
For `Cc1ccc2c(C#N)c(-c3ccc(S(=O)(=O)NC(C)(C)C)cc3)n(C3CCC3)c2n1` [Cpd 141, N-tert-butyl-4-(3-cyano-1-cyclobutyl-6-methyl-1H-pyrrolo[2,3-b]pyridin-2-yl)benzenesulfonamide] the same measures were 194 to 200 °C and 500 to 2000 nM.
The corresponding values for `Cc1ccc2c(C#N)c(-c3ccc(S(=O)(=O)NC(C)(C)C)cn3)n(C3CCC3)c2n1` [Cpd 142, N-tert-butyl-6-(3-cyano-1-cyclobutyl-6-methyl-1H-pyrrolo[2,3-b]pyridin-2-yl)pyridine-3-sulfonamide] are 181 to 187 °C and under 500 nM.
Compound `Cc1ccc2c(C#N)c(-c3ccc(S(=O)(=O)NC4(C)CC4)cc3)n(C3CCC3)c2n1` [Cpd 143, 4-(3-cyano-1-cyclobutyl-6-methyl-1H-pyrrolo[2,3-b]pyridin-2-yl)-N-(1-methylcyclopropyl)benzenesulfonamide] came in with a melting point of 200 to 207 °C. This compound also came in with an IC50 in data set [1] of under 500 nM.
For `Cc1ccc2c(C#N)c(-c3ncc(S(=O)(=O)NC4(C)CC4)cn3)n(C3CCC3)c2n1` [Cpd 144, 2-(3-cyano-1-cyclobutyl-6-methyl-1H-pyrrolo[2,3-b]pyridin-2-yl)-N-(1-methylcyclopropyl)pyrimidine-5-sulfonamide] the same measures were 224 to 232 °C and under 500 nM.
For `Cc1ccc2c(C#N)c(-c3ccc(S(=O)(=O)NC(CF)CF)cc3)n(C3CCC3)c2n1` [Cpd 145, 4-(3-cyano-1-cyclobutyl-6-methyl-1H-pyrrolo[2,3-b]pyridin-2-yl)-N-(1,3-difluoropropan-2-yl)benzenesulfonamide] the same measures were 182 to 193 °C and under 500 nM.
`Cc1ccc2c(C#N)c(-c3ccc(S(=O)(=O)NC(CF)CF)cn3)n(C3CCC3)c2n1` [Cpd 146, 6-(3-cyano-1-cyclobutyl-6-methyl-1H-pyrrolo[2,3-b]pyridin-2-yl)-N-(1,3-difluoropropan-2-yl)pyridine-3-sulfonamide] displayed a melting point of 180 to 188 °C. In addition, in data set [1], the IC50 was under 500 nM.
Take `Cc1ccc2c(C#N)c(-c3ncc(S(=O)(=O)NC(CF)CF)cn3)n(C3CCC3)c2n1` [Cpd 147, 2-(3-cyano-1-cyclobutyl-6-methyl-1H-pyrrolo[2,3-b]pyridin-2-yl)-N-(1,3-difluoropropan-2-yl)pyrimidine-5-sulfonamide]: the melting point was in the range of 211 to 217 °C. Moreover, the IC50 in data set [1] is under 500 nM.
The corresponding values for `Cc1ccc2c(C#N)c(-c3ccc(S(=O)(=O)NC4CCC4)cn3)n(C3CCC3)c2n1` [Cpd 148, 6-(3-cyano-1-cyclobutyl-6-methyl-1H-pyrrolo[2,3-b]pyridin-2-yl)-N-cyclobutylpyridine-3-sulfonamide] are 151 to 160 °C and under 500 nM.
For `C[C@H](NS(=O)(=O)c1ccc(-c2c(C#N)c3ccc(C4CC4)nc3n2C2CCC2)nc1)C(F)(F)F` [Cpd 151, 6-(3-cyano-1-cyclobutyl-6-cyclopropyl-1H-pyrrolo[2,3-b]pyridin-2-yl)-N-[(2S)-1,1,1-trifluoropropan-2-yl]pyridine-3-sulfonamide] the same measures were 170 to 176 °C and under 500 nM.
Turning to `C[C@@H](NS(=O)(=O)c1ccc(-c2c(C#N)c3ccc(C4CC4)nc3n2C2CCC2)nc1)C(F)(F)F` [Cpd 152, 6-(3-cyano-1-cyclobutyl-6-cyclopropyl-1H-pyrrolo[2,3-b]pyridin-2-yl)-N-[(2R)-1,1,1-trifluoropropan-2-yl]pyridine-3-sulfonamide], the melting point lay in the range of 170 to 176 °C. Further, the half-maximal inhibitory concentration (IC50) in data set [1] was under 500 nM.
On to `C[C@@H](NS(=O)(=O)c1cnc(-c2c(C#N)c3ccc(C4CC4)nc3n2C2CCC2)nc1)C(F)(F)F` [Cpd 154, 2-(3-cyano-1-cyclobutyl-6-cyclopropyl-1H-pyrrolo[2,3-b]pyridin-2-yl)-N-[(2R)-1,1,1-trifluoropropan-2-yl]pyrimidine-5-sulfonamide], for which the melting point was in the range of 244 to 249 °C. The compound also returned an IC50 in data set [1] of under 500 nM.
Consider `CCc1cnc2c(c1)c(C#N)c(-c1ccc(S(=O)(=O)N[C@@H](C)C(F)(F)F)cc1)n2C1CCC1` [Cpd 155, 4-(3-cyano-1-cyclobutyl-5-ethyl-1H-pyrrolo[2,3-b]pyridin-2-yl)-N-[(2S)-1,1,1-trifluoropropan-2-yl]benzenesulfonamide], for which the melting point lay in the range of 194 to 201 °C. The IC50 in data set [1] is under 500 nM.
For `CCc1cnc2c(c1)c(C#N)c(-c1ccc(S(=O)(=O)N[C@H](C)C(F)(F)F)cc1)n2C1CCC1` [Cpd 156, 4-(3-cyano-1-cyclobutyl-5-ethyl-1H-pyrrolo[2,3-b]pyridin-2-yl)-N-[(2R)-1,1,1-trifluoropropan-2-yl]benzenesulfonamide] the same measures were 194 to 201 °C and 500 to 2000 nM.
The corresponding values for `C[C@H](NS(=O)(=O)c1ccc(-c2c(C#N)c3ccc(Cl)nc3n2C2CCC2)nc1)C(F)(F)F` [Cpd 161, 6-(6-chloro-3-cyano-1-cyclobutyl-1H-pyrrolo[2,3-b]pyridin-2-yl)-N-[(2S)-1,1,1-trifluoropropan-2-yl]pyridine-3-sulfonamide] are 172 to 178 °C and under 500 nM.
`C[C@@H](NS(=O)(=O)c1ccc(-c2c(C#N)c3ccc(Cl)nc3n2C2CCC2)nc1)C(F)(F)F` [Cpd 162, 6-(6-chloro-3-cyano-1-cyclobutyl-1H-pyrrolo[2,3-b]pyridin-2-yl)-N-[(2R)-1,1,1-trifluoropropan-2-yl]pyridine-3-sulfonamide] gave a melting point of 172 to 178 °C. In addition, the IC50 in data set [1] was under 500 nM.

Values taken from patent US9593108B2, “Compounds and methods for antiviral treatment” (PTC Therapeutics, Inc., priority 2009, dated 2017).
